Data taken from patent publication US8163771B2, “11 β-HSD1 modulators” (Exelixis, Inc., priority 2008, dated 2012).

Biological target: T1, recombinant human 11 β-HSD1 (Homo sapiens, UniProt P28845)
T1 construct: made in house; host or cells: E. coli
Assay: 11 β-HSD1 SPA Assay (Scintillation Proximity Assay)
Assay type: biochemical
Description: (§1) Inhibition of 11 βHSD1 by test compounds was assessed in vitro by a Scintillation Proximity Assay (SPA). The assay was carried out in a 384-well assay plate in a total well volume of 26 μl and contained a mixture of tritiated cortisone substrate (40 nM), NADPH cofactor (1 mM), inhibitor in serial dilutions ([…] to 10 μM), and purified E. coli-expressed recombinant human 11 βHSD1 (30-100 nM) in assay buffer (50 mM HEPES, 100 mM KCl, 5 mM NaCl, and 2 mM MgCl2, pH7.4). Following mixing, the plate was incubated for 2 hours at room temperature. Reactions were stopped by addition of 30 μl of protein A YSi SPA beads (10 mg/ml) that had been pre-incubated with glycyrrhetinic acid (1 mM) and a monoclonal cortisol antibody (3 μg/ml). The plate was then incubated overnight at room temperature prior to reading on a Microbeta counter. Percent inhibition of each compound was calculated based on the background and the maximal signals. Wells that contained substrate without compound or enzyme were used as the background signal, while the wells that contained substrate and enzyme without any compound were used as the maximal signal. The calculation of the IC50 values for the inhibitors was performed by Activity Base.
as §1, with “β-HSD1” for “βHSD1”

T1 sequence (P28845 whole entry): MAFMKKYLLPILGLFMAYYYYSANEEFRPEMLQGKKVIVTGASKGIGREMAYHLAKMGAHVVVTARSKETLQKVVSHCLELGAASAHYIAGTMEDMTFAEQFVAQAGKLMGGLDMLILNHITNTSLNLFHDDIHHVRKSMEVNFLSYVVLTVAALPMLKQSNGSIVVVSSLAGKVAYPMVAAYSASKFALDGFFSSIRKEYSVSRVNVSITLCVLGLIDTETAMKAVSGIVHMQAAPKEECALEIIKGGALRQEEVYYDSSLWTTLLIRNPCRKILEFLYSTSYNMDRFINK

| Compound | IC50 |
| --- | --- |
| CC(C)NC(=O)c1ccc(N2[C@@H]3CC[C@H]2C[C@@H](NC(=O)C(C)(C)Oc2ccc(Cl)cc2)C3)nc1 [Example 30, 6-[3-endo-({2-[(4-chlorophenyl)oxy]-2-methylpropanoyl}amino)-8-azabicyclo[3.2.1]oct-8-yl]-N-(1-methylethyl)pyridine 3-carboxamide] | < 200 nM |
| CC(C)(Oc1ccc(Cl)cc1Cl)C(=O)N[C@H]1C[C@H]2CC[C@@H](C1)N2c1ccc(C(=O)NC2CC2)cn1 [Example 31, N-cyclopropyl-6-[3-endo-({2-[(2,4-dichlorophenyl)oxy]-2-methylpropanoyl}amino)-8-azabicyclo[3.2.1]oct-8-yl]pyridine-3-carboxamide] | < 200 nM |
| CC(C)(Oc1ccc(Cl)cc1)C(=O)N[C@H]1C[C@H]2CC[C@@H](C1)N2c1ccc(C#N)cn1 [Example 32, 2-[(4-chlorophenyl)oxy]-N-[8-(5-cyanopyridin-2-yl)-8-azabicyclo[3.2.1]oct-3-endo-yl]-2-methylpropanamide] | < 200 nM |
| CC(C)(Oc1ccc(F)c(F)c1)C(=O)N[C@H]1C[C@H]2CC[C@@H](C1)N2c1ccc(C(=O)NC2CC2)cn1 [Example 33, N-cyclopropyl-6-[3-endo-({2-[(3,4-difluorophenyl)oxy]-2-methylpropanoyl}amino)-8-azabicyclo[3.2.1]oct-8-yl]pyridine-3-carboxamide] | < 200 nM |
| CC(C)(C(=O)N[C@H]1C[C@H]2CC[C@@H](C1)N2c1ccc(C(=O)NC2CC2)cn1)c1ccccc1Cl [Example 34, 6-(3-endo-{[2-(2-chlorophenyl)-2-methylpropanoyl]amino}-8-azabicyclo[3.2.1]oct-8-yl)-N-cyclopropylpyridine-3-carboxamide] | < 200 nM |
| CC(C)(Oc1ccc(F)cc1F)C(=O)N[C@H]1C[C@H]2CC[C@@H](C1)N2c1ccc(C(=O)NC2CC2)cn1 [Example 35, N-cyclopropyl-6-[3-endo-({2-[(2,4-difluorophenyl)oxy]-2-methylpropanoyl}amino)-8-azabicyclo[3.2.1]oct-8-yl]pyridine-3-carboxamide] | < 200 nM |
| CC(C)(Oc1ccc(Cl)cc1)C(=O)N[C@H]1C[C@H]2CC[C@@H](C1)N2c1ncc(C(=O)NC2CC2)cn1 [Example 36, 2-[3-endo-({2-[(4-chlorophenyl)oxy]-2-methylpropanoyl}amino)-8-azabicyclo[3.2.1]oct-8-yl]-N-cyclopropylpyrimidine-5-carboxamide] | < 200 nM |
| CC(C)(Oc1ccc(C(F)(F)F)cc1)C(=O)N[C@H]1C[C@H]2CC[C@@H](C1)N2c1ccc(C(=O)NC2CC2)cn1 [Example 37, N-cyclopropyl-6-{3-endo-[(2-methyl-2-{[4-(trifluoromethyl)phenyl]oxy}propanoyl)amino]-8-azabicyclo[3.2.1]oct-8-yl}pyridine-3-carboxamide] | < 200 nM |
| CC(C)(Oc1ccc(C#N)cc1)C(=O)N[C@H]1C[C@H]2CC[C@@H](C1)N2c1ccc(C(=O)NC2CC2)cn1 [Example 38, 6-[3-endo-({2-[(4-cyanophenyl)oxy]-2-methylpropanoyl}amino)-8-azabicyclo[3.2.1]oct-8-yl]-N-cyclopropylpyridine-3-carboxamide] | < 200 nM |
| O=C(NC1CC1)c1ccc(N2[C@@H]3CC[C@H]2C[C@@H](NC(=O)C2(c4cccc(F)c4)CC2)C3)nc1 [Example 39, N-cyclopropyl-6-[3-endo-({[1-(3-fluorophenyl)cyclopropyl]carbonyl}amino)-8-azabicyclo[3.2.1]oct-8-yl]pyridine-3-carboxamide] | < 200 nM |
| Cc1cc(C(=O)NC2CC2)cnc1N1[C@@H]2CC[C@H]1C[C@@H](NC(=O)C(C)(C)Oc1ccc(Cl)cc1)C2 [Example 40, 6-[3-endo-({2-[(4-chlorophenyl)oxy]-2-methylpropanoyl}amino)-8-azabicyclo[3.2.1]oct-8-yl]-N-cyclopropyl-5-methylpyridine-3-carboxamide] | < 200 nM |
| CC(C)(Oc1ccc(Cl)cc1F)C(=O)N[C@H]1C[C@H]2CC[C@@H](C1)N2c1ccc(C(=O)NC2CC2)cn1 [Example 41, 6-[3-endo-({2-[(4-chloro-2-fluorophenyl)oxy]-2-methylpropanoyl}amino)-8-azabicyclo[3.2.1]oct-8-yl]-N-cyclopropylpyridine-3-carboxamide] | < 200 nM |
| CC(C)(Oc1ccc(Cl)c(Cl)c1)C(=O)N[C@H]1C[C@H]2CC[C@@H](C1)N2c1ccc(C(=O)NC2CC2)cn1 [Example 42, N-cyclopropyl-6-[3-endo-({2-[(3,4-dichlorophenyl)oxy]-2-methylpropanoyl}amino)-8-azabicyclo[3.2.1]oct-8-yl]pyridine-3-carboxamide] | < 200 nM |
| CC(C)(Oc1ccc(Cl)c(F)c1)C(=O)N[C@H]1C[C@H]2CC[C@@H](C1)N2c1ccc(C(=O)NC2CC2)cn1 [Example 43, 6-[3-endo-({2-[(4-chloro-3-fluorophenyl)oxy]-2-methylpropanoyl}amino)-8-azabicyclo[3.2.1]oct-8-yl]-N-cyclopropylpyridine-3-carboxamide] | < 200 nM |
| COc1ccc(OC(C)(C)C(=O)N[C@H]2C[C@H]3CC[C@@H](C2)N3c2ccc(C(=O)NC3CC3)cn2)cc1 [Example 44, N-cyclopropyl-6-{3-endo-[(2-methyl-2-{[4-(methyloxy)phenyl]oxy}pro-panoyl)amino]-8-azabicyclo[3.2.1]oct-8-yl}pyridine-3-carboxamide] | < 200 nM |
| O=C(NC1CC1)c1ccc(N2[C@@H]3CC[C@H]2C[C@@H](NC(=O)C2(Oc4ccccc4)CC2)C3)nc1 [Example 45, N-cyclopropyl-6-[3-endo-({[1-(phenyloxy)cyclopropyl]carbonyl}amino)-8-azabicyclo[3.2.1]oct-8-yl]pyridine-3-carboxamide] | < 200 nM |
| O=C(NC1CC1)c1ccc(N2[C@@H]3CC[C@H]2C[C@@H](NC(=O)C2(Oc4ccccc4)CCC2)C3)nc1 [Example 46, N-cyclopropyl-6-[3-endo-({[1-(phenyloxy)cyclobutyl]carbonyl}amino)-8-azabicyclo[3.2.1]oct-8-yl]pyridine-3-carboxamide] | < 200 nM |
| O=C(NC1CC1)c1ccc(N2[C@@H]3CC[C@H]2C[C@@H](NC(=O)C2(Oc4ccc(Cl)cc4)CCC2)C3)nc1 [Example 47, 6-{3-endo-[({1-[(4-chlorophenyl)oxy]cyclobutyl}carbonyl)amino]-8-azabicyclo[3.2.1]oct-8-yl}-N-cyclopropylpyridine-3-carboxamide] | < 200 nM |
| CC(Oc1ccccc1)C(=O)N[C@H]1C[C@H]2CC[C@@H](C1)N2c1ccc(C(=O)NC2CC2)cn1 (stereo partly drawn) [Example 48, N-cyclopropyl-6-(3-endo-{[2-(phenyloxy)propanoyl]amino}-8-azabicycio[3.2.1]oct-8-yl)pyridine-3-carboxamide] | < 2000 nM |
| CC(Oc1ccc(Cl)cc1)C(=O)N[C@H]1C[C@H]2CC[C@@H](C1)N2c1ccc(C(=O)NC2CC2)cn1 (stereo partly drawn) [Example 49, 6-[3-endo-({2-[(4-chlorophenyl)oxy]propanoyl}amino)-8-azabicyclo[3.2.1]oct-8-yl]-N-cyclopropylpyridine-3-carboxamide] | < 2000 nM |
| O=C(NC1CC1)c1ccc(N2[C@@H]3CC[C@H]2C[C@@H](NC(=O)C2(c4ccc(Cl)cc4)CCC2)C3)nc1 [Example 50, 6-[3-endo-({[1-(4-chlorophenyl)cyclobutyl]carbonyl}amino)-8-azabicyclo[3.2.1]oct-8-yl]-N-cyclopropylpyridine-3-carboxamide] | < 200 nM |
| Cc1nc(N2[C@@H]3CC[C@H]2C[C@@H](NC(=O)C(C)(C)Oc2ccc(Cl)cc2)C3)ccc1C(=O)NC1CC1 [Example 51, 6-[3-endo-({2-[(4-chlorophenyl)oxy]-2-methylpropanoyl}amino)-8-azabicyclo[3.2.1]oct-8-yl]-N-cyclopropyl-2-methylpyridine-3-carboxamide] | < 2000 nM |
| CC(C)(Oc1ccc(F)cc1Cl)C(=O)N[C@H]1C[C@H]2CC[C@@H](C1)N2c1ccc(C(=O)NCC(F)(F)F)cn1 [Example 52, 6-[3-endo-({2-[(2-chloro-4-fluorophenyl)oxy]-2-methylpropanoyl}amino)-8-azabicyclo[3.2.1]oct-8-yl]-N-(2,2,2-trifluoroethyl)pyridine-3-carboxamide] | < 200 nM |
| CC(C)NC(=O)c1ccc(N2[C@@H]3CC[C@H]2C[C@@H](NC(=O)C(C)(C)Oc2ccc(Cl)cc2Cl)C3)nc1 [Example 54, 6-[3-endo-({2-[(2,4-dichlorophenyl)oxy]-2-methylpropanoyl}amino)-8-azabicyclo[3.2.1]oct-8-yl]-N-(1-methylethyl)pyridine-3-carboxamide] | < 200 nM |
